Consider five compounds from US11858910B2, “Pyridinylmethylenepiperidine derivatives and uses thereof” (SUNSHINE LAKE PHARMA CO., LTD., priority 2018, dated 2024).

Data set [1] deals with T1, human 5-HT1F receptor (Homo sapiens, UniProt P30939).
T1 construct: expressed in transfected cells; host or cells: CHO-K1
T1 sequence (P30939 1-366): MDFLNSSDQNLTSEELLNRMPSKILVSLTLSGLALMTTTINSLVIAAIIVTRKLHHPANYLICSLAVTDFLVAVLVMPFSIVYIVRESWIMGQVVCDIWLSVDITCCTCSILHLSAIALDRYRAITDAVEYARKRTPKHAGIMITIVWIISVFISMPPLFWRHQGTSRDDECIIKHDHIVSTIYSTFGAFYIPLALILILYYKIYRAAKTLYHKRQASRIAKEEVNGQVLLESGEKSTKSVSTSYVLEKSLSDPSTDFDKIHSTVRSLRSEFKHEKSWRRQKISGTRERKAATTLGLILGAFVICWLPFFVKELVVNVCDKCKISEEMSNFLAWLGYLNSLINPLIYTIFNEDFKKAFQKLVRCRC
Put plainly: Activating effect on human 5-HT1F receptor transfected CHO-K1 cells (HitHunter cAMP detection kit). It is filed as cell-based. On the procedure: Experimental purposes: To evaluate the activating effect of the compound on CHO-K1 cells transfected human 5-HT1F receptor by using HitHunter cAMP detection kit.
Experimental brief process: CHO-K1 cells were cultured in a 384 microporous plate. The volume of cell culture medium (Assay Complete™ Cell Plating Reagent, DIscoverX) was 20 μL and the cell density was 10,000/well. The cells were cultured overnight at 37° C. and 5% CO2. Then the culture medium was removed, and 15 μL of cAMP Assay Buffer (DIscoverX) was added into each well, and then 5 μL of test sample containing 4× sample (test compound or 5-HT) and 4× forskolin (final concentration of forskolin is 15 μM) was added. The microporous plate was placed at 37° C. for 30 minutes. Then 5 μL of cAMP Antibody Reagent (DiscoverX) and 20 μL of cAMP Working Detection Solution (DiscoverX) were added and incubated in the dark for 1 hour, and then 20 μL of cAMP Solution A was added and incubated in the dark for 3 hours. The microporous plate was placed in the Perkin Elmer Envision™ to read the intensity of the optical signal. The activation rate was calculated by the intensity of the optical signal obtained from testing the compounds with different concentrations ((1−(Y/Z))*100%=the activation rate, wherein, Y represents the intensity of the optical signal adding test sample, and Z represents the intensity of the optical signal adding only forskolin). The dose-effect curve of the compounds was calculated by Prism software, and the concentration of the agonist with half maximum response was calculated and expressed by EC50 value. The results were shown in Table A. 5-HT was used as a positive control drug to ensure the normal experimental system in this experiment.

A short description of data set [2]: Pharmacokinetic evaluation after intravenous or gavage administration to rats. It counts as in vivo, SD rats. The protocol: (§1) The inventors had evaluated the pharmacokinetics of the compounds of the invention in rats and dogs. Wherein animal information was detailed in Table 1.
(§2) The compound was administered to the animal subjects in the form of 5% DMSO+60% PEG400+35% Saline solution or 10% DMSO+10% Kolliphor HS15+30% PEG400+50% Saline solution. The animals were fasted for 12 hours before administration, but drinking water freely. For the group of intravenous administration, the administration dose is 0.5 mg/kg or 1 mg/kg, and vein blood samples (0.15 mL) were collected at the time points of 0.083, 0.25, 0.5, 1.0, 2.0, 4.0, 6.0, 8.0 and 24 h (dogs) or 0.083, 0.25, 0.5, 1.0, 2.0, 5.0, 7.0 and 24 h (rats) after drug administration. EDTA-K2 as anticoagulant was pre-added into the blood vessel. The plasma solutions were collected by centrifuging each blood sample at 12,000 rpm for 2 minutes and kept at −20° C. or −70° C. For the group of gavage administration, the administration dose is 2.5 mg/kg or 5 mg/kg, and vein blood samples (0.15 mL) were collected at the time points of 0.25, 0.5, 1.0, 2.0, 4.0, 6.0, 8.0 and 24 h (dogs) or 0.25, 0.5, 1.0, 2.0, 5.0, 7.0 and 24 h (rats) after drug administration. EDTA-K2 as anticoagulant was pre-added into the blood vessel. The plasma solutions were collected by centrifuging each blood sample at 12,000 rpm for 2 minutes and kept at −20° C. or −70° C.
(§3) After processing the above plasma sample (the frozen plasma was melted at room temperature and then whirled for 15 seconds. 10 to 20 μL of the plasma was taken out, and whirled with 120 to 150 μL of an acetonitrile solution containing an internal standard for 5 minutes. The mixture was centrifuged for 5 minutes at 4,000 rpm. 100 μL of the supernatant was taken out and mixed with 120 to 150 μL of methanol-water (v/v=1/1)), the concentration of compounds in plasma was analyzed by LC-MS/MS. […] The compound of the invention has better drug properties and better clinical application prospects. Wherein the pharmacokinetic parameters of examples 12 and 19 in rats were detailed in Table B1; the pharmacokinetic parameters of examples 12 and 19 in dogs were detailed in Table B2.

Data set [3] is described as follows: Pharmacokinetic evaluation after intravenous or gavage administration to dogs. It is filed as in vivo, Beagle dogs. The protocol: as §1, §2, §3
Where [4] appears, read: CHO-K1 cells, forskolin 15 μM, cAMP, read-out: EC50.
The mark [5] stands for this setting: Beagle, dog, in vivo, iv, 0.5 mg/kg.
The mark [6] stands for this setting: beagle, dog, in vivo, po, 2.5 mg/kg.

pEC50: −log10 of the molar value. Where two headings read alike, the source gives them in different places.

For `CN1CCC(=Cc2cccc(NC(=O)c3c(F)cc(F)cc3F)n2)CC1` [Example 5, 2,4,6-trifluoro-N-(6-((1-methylpiperidin-4-ylidene)methyl)pyridine-2-yl)benzamide], the pEC50 in data set [1] (setting [4]) is 8.72.

In the case of `CN1CCC(=Cc2cccc(NC(=O)c3ccc(F)cc3F)n2)CC1` [Example 3, 2,4-difluoro-N-(6-((1-methylpiperidin-4-ylidene)methyl)pyridine-2-yl)benzamide], the pEC50 in data set [1] (setting [4]) is 8.23.

On to `CN1CCC(=C(F)c2cccc(NC(=O)c3c(F)cc(F)cc3F)n2)CC1` [Example 12, 2,4,6-trifluoro-N-(6-(fluoro(1-methylpiperidin-4-ylidene)methyl)pyridine-2-yl)benzamide], for which the AUC(0-inf) was 114 ng·h/mL in data set [2] (SD, rat, plasma, iv, rats, i.v group, 1 mg/kg, read-out: AUCINF); 354 ng·h/mL in data set [2] (SD, rat, plasma, po, rats, i.g group, 5 mg/kg, read-out: AUCINF); 660 ng·h/mL in data set [3] (Beagle, dog, plasma, iv, dogs, i.v group, 1 mg/kg, read-out: AUCINF); 705 ng·h/mL in data set [3] (Beagle, dog, plasma, po, dogs, i.g group, 5 mg/kg, read-out: AUCINF). For the same compound, the AUC(0-t) in data set [2] (SD, rat, plasma, iv, rats, i.v group, 1 mg/kg, read-out: AUClast) was 111 ng·h/mL; in data set [2] (SD, rat, plasma, po, rats, i.g group, 5 mg/kg, read-out: AUClast) it was 296 ng·h/mL; in data set [3] (Beagle, dog, plasma, iv, dogs, i.v group, 1 mg/kg, read-out: AUClast), 652 ng·h/mL; in data set [3] (Beagle, dog, plasma, po, dogs, i.g group, 5 mg/kg, read-out: AUClast), 691 ng·h/mL. Besides, the clearance turned out to be 146 mL/min/kg in data set [2] (SD, rat, plasma, iv, rats, i.v group, 1 mg/kg, read-out: Cl) and 25.2 mL/min/kg in data set [3] (Beagle, dog, plasma, iv, dogs, i.v group, 1 mg/kg, read-out: Cl). In addition, the Cmax in data set [2] (SD, rat, plasma, iv, rats, i.v group, 1 mg/kg, read-out: Cmax) was determined as 80.5 ng/mL; in data set [2] (SD, rat, plasma, po, rats, i.g group, 5 mg/kg, read-out: Cmax) it was 71.8 ng/mL; in data set [3] (Beagle, dog, plasma, iv, dogs, i.v group, 1 mg/kg, read-out: Cmax) it was 170 ng/mL; in data set [3] (Beagle, dog, plasma, po, dogs, i.g group, 5 mg/kg, read-out: Cmax), 82.8 ng/mL. The MRT inf in data set [2] (SD, rat, plasma, iv, rats, i.v group, 1 mg/kg, read-out: MRTINF) was 1.66 h; in data set [2] (SD, rat, plasma, po, rats, i.g group, 5 mg/kg, read-out: MRTINF), 4.05 h; in data set [3] (Beagle, dog, plasma, iv, dogs, i.v group, 1 mg/kg, read-out: MRTINF) it was 4.11 h; in data set [3] (Beagle, dog, plasma, po, dogs, i.g group, 5 mg/kg, read-out: MRTINF), 5.98 h. Moreover, the half-life is 1.38 h in data set [2] (SD, rat, plasma, iv, rats, i.v group, 1 mg/kg, read-out: T1/2 (converted)); 2.31 h in data set [2] (SD, rat, plasma, po, rats, i.g group, 5 mg/kg, read-out: T1/2 (converted)); 3.52 h in data set [3] (Beagle, dog, plasma, iv, dogs, i.v group, 1 mg/kg, read-out: T1/2 (converted)); 4.28 h in data set [3] (Beagle, dog, plasma, po, dogs, i.g group, 5 mg/kg, read-out: T1/2 (converted)). The Tmax worked out at 0.083 h in data set [2] (SD, rat, plasma, iv, rats, i.v group, 1 mg/kg, read-out: Tmax); 2 h in data set [2] (SD, rat, plasma, po, rats, i.g group, 5 mg/kg, read-out: Tmax); 0.25 h in data set [3] (Beagle, dog, plasma, iv, dogs, i.v group, 1 mg/kg, read-out: Tmax); 1.67 h in data set [3] (Beagle, dog, plasma, po, dogs, i.g group, 5 mg/kg, read-out: Tmax). The Vd in data set [2] (SD, rat, plasma, iv, rats, i.v group, 1 mg/kg, read-out: Vss) was determined as 14.6 L/kg; in data set [3] (Beagle, dog, plasma, iv, dogs, i.v group, 1 mg/kg, read-out: Vss) it was 6.22 L/kg. The F in data set [2] (rats, i.g group, 5 mg/kg) worked out at 62%; in data set [3] (dogs, i.g group, 5 mg/kg), 21.4%. In data set [1], the pEC50 was 8.82.

With `CN1CCC(=C(F)c2cccc(NC(=O)c3ccc(F)cc3F)n2)CC1` [Example 10, 2,4-difluoro-N-(6-(fluoro(1-methylpiperidin-4-ylidene)methyl)pyridine-2-yl)benzamide], the pEC50 in data set [1] (setting [4]) is 8.52.

The compound `CCN1CCC(=C(F)c2cccc(NC(=O)c3c(F)cc(F)cc3F)n2)CC1` [Example 19, 2,4,6-trifluoro-N-(6-(fluoro(1-ethylpiperidin-4-ylidene)methyl)pyridin-2-yl)benzamide] came in with a F in data set [2] (SD, rat, in vivo, 5 mg/kg) of 105%. Further, in data set [2] (SD, rat, in vivo, iv, 1 mg/kg), the AUC(0-inf) worked out at 259 ng·h/mL, the AUC(0-t) amounted to 240 ng·h/mL, the Cmax is 67.7 ng/mL and the MRT inf was 2.95 h. In data set [2] (SD, rat, in vivo, iv, 1 mg/kg), the Tmax amounted to 0.5 h, the Vd was 11.4 L/kg, the clearance came out at 64.4 mL/min/kg and the half-life is 2.1 h. For the same compound, in data set [2] (SD, rat, in vivo, po, 5 mg/kg), the AUC(0-inf) stood at 1320 ng·h/mL, the AUC(0-t) is 1260 ng·h/mL, the Cmax was found to be 169 ng/mL and the MRT inf is 5.01 h. In data set [2] (SD, rat, in vivo, po, 5 mg/kg), the Tmax came to 3.67 h and the half-life is 3.06 h. The pEC50 in data set [1] (setting [4]) was 8.17. The same compound came in with a F in data set [3] (Beagle, dog, in vivo, 2.5 mg/kg) of 12.4%. In data set [3] (setting [5]), this compound had an AUC(0-inf) of 634 ng·h/mL, an AUC(0-t) of 632 ng·h/mL, a Cmax of 442 ng/mL and an MRT inf of 1.39 h. In addition, in data set [3] (setting [5]), the time of peak concentration (Tmax) was found to be 0.083 h, the Vd worked out at 1.1 L/kg, the clearance came to 13.1 mL/min/kg and the half-life was 1.06 h. Further, in data set [3] (setting [6]), the AUC(0-inf) was found to be 392 ng·h/mL, the AUC(0-t) was 356 ng·h/mL, the Cmax amounted to 126 ng/mL and the MRT inf is 3.26 h. Further, in data set [3] (setting [6]), the Tmax came to 1 h and the half-life is 1.96 h.
